We go through 1 compound from paper PMC11087509, “Multimodal binding and inhibition of bacterial ribosomes by the antimicrobial peptides Api137 and Api88” (Nature Communications, 2024).

As usually defined, the Kd is the constant that tells how readily two partners part at equilibrium.

One test relates to purified 70S ribosomes. Kind of test: In vitro transcription-translation (ITT) of sfGFP. In kind it is biochemical, E. coli. The source says: sfGFP was expressed using the NEB PureExpress Delta RF123 Kit (New England Biolabs). The sfGFP DNA template encoding for an UAG stop codon was amplified from the pY71sfGFP plasmid by PCR using sfGFP primers (sfGFP fwd: […] and sfGFP rev: […]). The release factor RF1 included in the kit was 50-fold diluted (v/v) in freshly prepared 1x Pure System Buffer (PSB, 9 mmol/L magnesium acetate, 5 mmol/L K3PO4 (pH 7.3), 95 mmol/L potassium glutamate, 5 mmol/L NH4Cl, 0.5 mmol/L CaCl2, 1 mmol/L spermidine, 8 mmol/L putrescine, 1 mmol/L DTT). sfGFP was expressed in a freshly prepared mixture of kit solution A (2 µL), kit solution B (1.5 µL), 50-fold diluted RF1 (0.5 µL), sfGFP template (0.1325 pmol, 35 ng) or water as control (0.25 µL), PSB (0.25 µL), and a PrAMP (50, 5, 0.05 or 0 µmol/L) dissolved in water (0.5 µL). The reaction mixture was transferred to a black 384-well plate (Greiner Bio-One GmbH, Frickenhausen, Germany), covered with a lid, and incubated in a microplate reader (Gemini EM, Molecular Devices) at 37 °C for two hours. Fluorescence was recorded every 10 min (λexc = 485 nm, λem = 535 nm).

Test [1] relates to ribosome (arrest at UAG stop codon of model yrbA ORF). Put plainly: In vitro toeprinting analysis (yrbA-fs15 template, TAG stop codon). The class given is biochemical. The conditions noted are these: 50 µmol/L; gel, one of two replicates. The protocol: Toeprinting experiments using the yrbA-fs15 DNA template with a TAG stop codon were performed in the NEB classic PURExpress system (New England Biolabs)[21] as described above. The template was prepared by PCR[21] by combining the overlapping primers T7, T7-IR-AUG, IR-yrbA-fs15-RF1 (for TAG), post-NV1, and NV1, rendering the sequence:
[…](TAG)[…] (ORF sequence is underlined). The peptides Api137 and Api88 were added from stock solutions in water to a final concentration of 50 µM.

Another test addresses recombinant TF. The settings on record: fluorescence polarization; cited from earlier work. An excerpt:
Binding sites two and three are close to uL23 and uL29, which is also supported by Api88(Y7B) cross-links. These ribosomal proteins are located adjacent to the PET exit and are binding hubs for the molecular chaperone trigger factor (TF)[34] and the signal recognition particle (SRP), a universally conserved and essential cellular machinery that directs proteins destined for membrane integration to the plasma membrane[35],[36]. This co-translational targeting is initiated by a hydrophobic signal sequence in the nascent protein chain recognized by SRP as it exits the PET. It is appealing to hypo ...
(In general: In fluorescence polarisation assays a small probe gives low polarisation when free and higher when bound to something large.)

The next test concerns the target DnaK. The settings on record: read-out: Kd (DnaK); peer review response; cited from earlier work. The source says:
We now introduce trigger factor in line 446 as “…molecular chaperone…” In addition, we hypothesize that Api88 binds to the ribosome within the contact area of TF, which interacts with uL23 and uL29, two proteins we report here as cross-linked to Api88.

Where a SMILES comes first, the peptide text is derived from it. The star is where a group is joined. Orn(α-tetramethylguanidino) = CN(C)C(=N[C@@H](CCCN)C(=O)*)N(C)C

Regarding `CC[C@H](C)[C@H](NC(=O)[C@H](Cc1ccc(O)cc1)NC(=O)[C@@H](NC(=O)[C@@H]1CCCN1C(=O)[C@H](CCCNC(=N)N)NC(=O)[C@H](CC(N)=O)NC(=O)[C@H](CC(N)=O)NC(=O)[C@H](CCCN)N=C(N(C)C)N(C)C)C(C)C)C(=O)N1CCC[C@H]1C(=O)N[C@@H](CCCNC(=N)N)C(=O)N1CCC[C@H]1C(=O)N[C@@H](CCCNC(=N)N)C(=O)N1CCC[C@H]1C(=O)N1CCC[C@H]1C(=O)N[C@@H](Cc1c[nH]cn1)C(=O)N1CCC[C@H]1C(=O)N[C@@H](CCCNC(=N)N)C(=O)N[C@@H](CC(C)C)C(=O)O` [Api137] ({Orn(α-tetramethylguanidino)}-NNRPVYIPRPRPPHPRL-OH), in the test on purified 70S ribosomes (absence of RF1, 50 µmol/L), the “production of sfGFP reduced down to” value is listed as ~ 60%. Besides, the “share of inhibitory effect based on a RF1-independent mechanism” value in the test on purified 70S ribosomes (in vitro protein translation, with vs without RF1) was “half of the inhibitory effect”. The “toeprinting band at the UAG stop codon” value in test [1] is recorded as “intense toeprinting band”. The figures for the Kd at recombinant TF and at DnaK were above 100 µM and around 5 µM, respectively.
